From PMC11659602, “Discovering covalent cyclic peptide inhibitors of peptidyl arginine deiminase 4 (PADI4) using mRNA-display with a genetically encoded electrophilic warhead” (Communications Chemistry, 2024)
Values joined by “and” are separate entries in the source; they are usually repeats but may differ in a detail not shown here. Equal entries are not always repeated. Where two headings read alike, the source gives them in different places. *1 amine or outer side, *2 acyl side, *3 side chain or, on linkers, in order; H or OH if unused. Where a SMILES comes first, the peptide text is derived from it. Bridges are numbered along the chain shown (N, C = ends). [ ]: non-standard residue; d: D form. Orn(fluoroacetimidoyl) = N=C(CF)NCCC[C@H](N)C(=O)O; Orn(acetimidoyl) = CC(=N)NCCC[C@H](N)C(=O)O; X1 = N=C(CCl)NCCC[C@H](N[*:1])C(=O)[*:2]; Cit = NC(=O)NCCC[C@H](N)C(=O)O

Tests used:
PADI4 [1] = biological target: T1, PADI4 (Homo sapiens, UniProt Q9UM07); experiment: COLDER inhibition assay, BAEE substrate, with or without 1 h preincubation; format: biochemical; conditions: for IC50: COLDER; for remaining activity at 0.3 µM: peptide 0.3 µM; for remaining activity at 0.003 µM: peptide 0.003 µM; for remaining activity at 0.03 µM: peptide 0.03 µM; for remaining activity at 0.1 µM: peptide 0.1 µM; for remaining activity at 3 µM: peptide 3 µM; for remaining activity at 10 µM: peptide 10 µM; for remaining activity at 30 µM: peptide 30 µM; for remaining activity at 50 µM: peptide 50 µM; for remaining activity at 0.01 µM: peptide 0.01 µM; for remaining activity at 1 µM: peptide 1 µM
T1 construct: His6; made in house
Procedure: PADI4 citrullination activity was analysed using the COLDER assay in 96-well plates. Peptide dilutions were prepared from a 500 µM stock, to give a 10 times concentrated dilution series (500 µM, 300 µM, 100 µM, 30 µM, 10 µM, 3 µM, 1 µM, 0.3 µM, 0.1 µM and 0.03 µM) in COLDER buffer (50 mM HEPES, 150 mM NaCl and 2 mM DTT, pH 7.5) containing 1% DMSO. In triplicate, each was diluted 10-fold further when mixed with 50 nM His-PADI4, 0.6 mg/mL BSA and 10 mM CaCl2, in COLDER buffer. With or without one hour of incubation, 10 mM N^α-Benzoyl-L-arginine ethyl ester hydrochloride (BAEE, Merck) was added to initiate the reaction (50 µL final volume). After 30 min at rt, EDTA (50 mM final concentration) was used to quench the reaction and 200 µL of COLDER solution containing 20 mM Diacetyl monoxime/2,3-butanedione monoxime (Merck), 0.5 mM Thiosemicarbazide (Acros Organics), 2.25 M H3PO4, 4.5 M H2SO4 and 1.5 mM NH4Fe(SO4)2.12H2O was added to each well. Samples were incubated for 20 min at 95 °C before measuring absorbance at 540 nm on a CLARIOstar Plus (BMG LABTECH). Data analysis was performed with GraphPad Prism. Data are presented as the average ± standard error of the mean from at least two independent replicates.

PADI4 [2] = biological target: T1, PADI4; experiment: Surface plasmon resonance (SPR), single cycle kinetics; format: binding; conditions: for Kd: reversible binding, 1:1 binding model; for Ki: k-1/k+1
Procedure: S8. Surface plasmon resonance (SPR)
Using a Biacore S200 (GE Healthcare), biotinylated His-PADI4 (80 nM) was immobilised on a CAP chip (GE Healthcare) to a response unit of approx. 3000. At 25 °C, single cycle kinetics mode was used with 5 samples of a 3-fold dilution series of peptides PADI4_3_H4(2), cP4_2, […]
mM HEPES, 150 mM NaCl, 10 mM CaCl2, 0.05% Tween-20, 0.1% DMSO (pH 7.5). After each cycle, regeneration of the chip was carried out as per the manufacturer’s protocol. Data were analysed with the Biacore S200 Evaluation Software, each in triplicate. Warhead-containing peptides were analysed using the two-state reaction model, with the rate constant for the reverse second step (k-2) set to zero. The equilibrium constant of the reversible binding step, Ki, was calculated as the ratio of k-1/k+1 and the rate constant of the irreversible chemical step, kinact, as k+2. The Arg4, Cit4 and Me4 peptides were fitted using a 1:1 binding model. […]

[3] = no preincubation of peptide and PADI4, 10 mM CaCl2, read-out: IC50 Values 0 h preincubation
[4] = no preincubation, read-out: PADI4 activity, normalised (Figure 4b dose-response)
[5] = 1 h preincubation of peptide and PADI4, 10 mM CaCl2, read-out: IC50 Values 1 h preincubation
[6] = two-state reaction model, k+2, read-out: SPR kinact (converted)
[7] = T=0, values starred, read-out: PADI4 activity normalised to 0.1% DMSO
[8] = T=0, read-out: PADI4 activity normalised to 0.1% DMSO
[9] = T=1, read-out: PADI4 activity normalised to 0.1% DMSO

T1 sequence (Q9UM07 whole entry): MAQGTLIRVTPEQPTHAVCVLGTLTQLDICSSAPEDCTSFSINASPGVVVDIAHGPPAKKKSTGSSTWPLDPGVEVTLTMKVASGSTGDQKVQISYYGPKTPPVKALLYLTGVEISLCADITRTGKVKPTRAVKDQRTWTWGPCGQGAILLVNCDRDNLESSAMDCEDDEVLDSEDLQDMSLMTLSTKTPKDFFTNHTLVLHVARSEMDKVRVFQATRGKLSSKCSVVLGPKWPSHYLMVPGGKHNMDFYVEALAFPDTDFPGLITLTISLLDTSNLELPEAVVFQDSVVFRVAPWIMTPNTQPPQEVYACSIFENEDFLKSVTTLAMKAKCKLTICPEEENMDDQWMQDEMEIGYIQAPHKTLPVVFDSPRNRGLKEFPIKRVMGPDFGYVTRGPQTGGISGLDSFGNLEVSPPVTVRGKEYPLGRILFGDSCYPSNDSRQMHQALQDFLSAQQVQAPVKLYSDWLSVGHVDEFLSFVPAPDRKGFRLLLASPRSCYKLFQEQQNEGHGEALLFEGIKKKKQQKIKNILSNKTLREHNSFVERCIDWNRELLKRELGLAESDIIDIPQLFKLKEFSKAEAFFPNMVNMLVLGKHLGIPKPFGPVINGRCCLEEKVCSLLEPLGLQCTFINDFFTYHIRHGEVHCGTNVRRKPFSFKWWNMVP

Row | SMILES | IC50 (PADI4 [1]; [3]) [µM] | remaining activity at 0.3 µM (PADI4 [1]; [4]) [%] | Kd (PADI4 [2]) [µM] | remaining activity at 0.003 µM (PADI4 [1]; [4]) [%] | remaining activity at 0.03 µM (PADI4 [1]; [4]) [%] | remaining activity at 0.1 µM (PADI4 [1]; [4]) [%] | remaining activity at 3 µM (PADI4 [1]; [4]) [%] | remaining activity at 10 µM (PADI4 [1]; [4]) [%] | remaining activity at 30 µM (PADI4 [1]; [4]) [%] | remaining activity at 50 µM (PADI4 [1]; [4]) [%] | IC50 (PADI4 [1]; [5]) [µM] | remaining activity at 0.01 µM (PADI4 [1]; [4]) [%] | remaining activity at 1 µM (PADI4 [1]; [4]) [%] | kinact/KI (PADI4 [2]) [M⁻¹ s⁻¹] | kinact (PADI4 [2]; [6]) [s⁻¹] | Ki (PADI4 [2]; two-state reaction model) [µM] | further results
1 | N=C(N)NCCC[C@@H]1NC(=O)[C@H](CC(=O)O)NC(=O)[C@H](Cc2ccc(O)cc2)NC(=O)[C@H](CCCCN)NC(=O)[C@H](CO)NC(=O)[C@@H](Cc2ccc(O)cc2)NC(=O)CSC[C@@H](C(=O)NCC(N)=O)NC(=O)[C@H](CC(=O)O)NC(=O)[C@H](CCCNC(=N)N)NC(=O)[C@@H]2CCCN2C(=O)[C@H](CO)NC(=O)[C@H](CCCNC(=N)N)NC1=O [Arg4] ({CH2CO}-[dY]SKYDRRSPRDCG-NH2; thioether N-12) | > 100 | 101 | 2 ± 0.2 |  |  |  |  |  |  |  |  |  |  |  |  |  | 
2 | N=C(N)NCCC[C@@H]1NC(=O)[C@H](CCCNC(N)=O)NC(=O)[C@H](CC(=O)O)NC(=O)[C@H](Cc2ccc(O)cc2)NC(=O)[C@H](CCCCN)NC(=O)[C@H](CO)NC(=O)[C@@H](Cc2ccc(O)cc2)NC(=O)CSC[C@@H](C(=O)NCC(N)=O)NC(=O)[C@H](CC(=O)O)NC(=O)[C@H](CCCNC(=N)N)NC(=O)[C@@H]2CCCN2C(=O)[C@H](CO)NC1=O [Cit4] ({CH2CO}-[dY]SKYD[Cit]RSPRDCG-NH2; thioether N-12) | > 100 | 103 | > 10 | 96.7 | 95.6 | 99.7 | 101 | 108 | 103 | 107 |  |  |  |  |  |  | 
3 | N=C(N)NCCC[C@@H]1NC(=O)[C@H](CCCNC(=N)CCl)NC(=O)[C@H](CC(=O)O)NC(=O)[C@H](Cc2ccc(O)cc2)NC(=O)[C@H](CCCCN)NC(=O)[C@H](CO)NC(=O)[C@@H](Cc2ccc(O)cc2)NC(=O)CSC[C@@H](C(=O)NCC(N)=O)NC(=O)[C@H](CC(=O)O)NC(=O)[C@H](CCCNC(=N)N)NC(=O)[C@@H]2CCCN2C(=O)[C@H](CO)NC1=O [Cl4] ({CH2CO}-[dY]SKYD[X1]RSPRDCG-NH2; thioether N-12) | 8.2 ± 0.8 | 86.6 |  |  | 90.5 | 86.7 |  | 34.1 | 12.5 | 6.56 | 0.066 ± 0.009 | 85.9 | 82.4 | 1170 | 0.00467 | 4 ± 0.2 | remaining activity at 0.1 µM (PADI4 [1]; 1 h, T = 1 h preincubation, read-out: PADI4 activity, normalised (Figure 4b dose-response)): 27.3%
4 | CC(=N)NCCC[C@@H]1NC(=O)[C@H](CC(=O)O)NC(=O)[C@H](Cc2ccc(O)cc2)NC(=O)[C@H](CCCCN)NC(=O)[C@H](CO)NC(=O)[C@@H](Cc2ccc(O)cc2)NC(=O)CSC[C@@H](C(=O)NCC(N)=O)NC(=O)[C@H](CC(=O)O)NC(=O)[C@H](CCCNC(=N)N)NC(=O)[C@@H]2CCCN2C(=O)[C@H](CO)NC(=O)[C@H](CCCNC(=N)N)NC1=O [Me4] ({CH2CO}-[dY]SKYD[Orn(acetimidoyl)]RSPRDCG-NH2; thioether N-12) | > 20 | 93.7 | 1.7 ± 0.4 | 91 | 96.4 | 92.1 | 84.6 |  | 41.5 | 25.9 |  | 92.6 | 86.6 |  |  |  | 
5 | CC[C@H](C)[C@@H]1NC(=O)[C@@H](Cc2ccc(O)cc2)NC(=O)CSC[C@@H](C(=O)NCC(N)=O)NC(=O)[C@H](CO)NC(=O)[C@H](CCCNC(=N)CF)NC(=O)[C@H](CC(=O)O)NC(=O)[C@H](CCCNC(=N)CF)NC(=O)[C@H](CC(C)C)NC(=O)CNC(=O)[C@H](Cc2c[nH]c3ccccc23)NC1=O [cP4_2, yIWGL(2)D(2)SCG] ({CH2CO}-[dY]IWGL[Orn(fluoroacetimidoyl)]D[Orn(fluoroacetimidoyl)]SCG-NH2; thioether N-10) | > 50 |  |  |  |  |  |  |  |  |  | 0.87 ± 0.06 |  |  | 1530 | 0.002 | 1.3 ± 0.5 | remaining activity at 0.003 µM (PADI4 [1]; [7]): 107%; remaining activity at 0.01 µM (PADI4 [1]; [7]): 107%; remaining activity at 0.03 µM (PADI4 [1]; [8]): 107%; remaining activity at 0.1 µM (PADI4 [1]; [8]): 108%; remaining activity at 0.1 µM (PADI4 [1]; [9]): 93.3%; remaining activity at 0.3 µM (PADI4 [1]; [8]): 106%; remaining activity at 0.3 µM (PADI4 [1]; [9]): 74.9%; remaining activity at 1 µM (PADI4 [1]; [8]): 107%; remaining activity at 1 µM (PADI4 [1]; [9]): 42.9%; remaining activity at 3 µM (PADI4 [1]; [8]): 105%; remaining activity at 3 µM (PADI4 [1]; [9]): 7.63%; remaining activity at 10 µM (PADI4 [1]; [8]): 101%; remaining activity at 10 µM (PADI4 [1]; [9]): 3.92%; remaining activity at 30 µM (PADI4 [1]; [8]): 80.9%; remaining activity at 50 µM (PADI4 [1]; T=0 (no preincubation), read-out: PADI4 activity normalised to 0.1% DMSO): 64.4%; k2 / kinact (PADI4 [2]; each replicate): 0.0026 s⁻¹ and 0.0019 s⁻¹; kinact (PADI4 [2]; each replicate, read-out: k2 / kinact): 0.0014 s⁻¹
